Laboratory results published in ChEMBL document CHEMBL1146608, “Design and synthesis of pseudo-symmetric HIV protease inhibitors containing a novel hydroxymethylcarbonyl (HMC)-hydrazide isostere” (Bioorg Med Chem Lett, 2003).

How the values were obtained:
[1] = target: Human immunodeficiency virus type 1 protease (Human immunodeficiency virus 1, UniProt Q72874); assay: Inhibitory activity against HIV-1 protease
[2] = Selectivity index expressed as ratio of TD50 to EC50; format: functional
[3] = system: MT4; assay: Inhibitory concentration against HIV-IIIB strain in MT-4 cells; format: functional, cell-based; details: Homo sapiens
[4] = system: MT4; assay: Cytotoxic effect against HIV-IIIB strain in MT-4 cells; format: functional; details: Homo sapiens, read-out: TD50 (the source's name)

SMILES	Ki [1]	Therapeutic index [2]	EC50 [3]	CC50 [4]
CSC[C@H](NC(=O)OCc1cccc2cnccc12)C(=O)N[C@@H](Cc1ccccc1)[C@H](O)C(=O)N(Cc1ccccc1)NC(=O)c1cccc(O)c1C	0.47 nM	58	0.4 nM	23 nM
Cc1c(O)cccc1C(=O)N[C@@H](Cc1ccccc1)[C@H](O)C(=O)N(Cc1ccccc1)NC(=O)c1cccc(O)c1C	15 nM	66	1.1 nM	73 nM
Cc1cc(N)cc(C)c1OCC(=O)N[C@@H](Cc1ccccc1)[C@H](O)C(=O)N(Cc1ccccc1)NC(=O)c1cccc(O)c1C	5 nM	73	0.48 nM	35 nM
Cc1cccc(C)c1OCC(=O)NN(Cc1ccccc1)C(=O)[C@@H](O)[C@H](Cc1ccccc1)NC(=O)c1cccc(O)c1C	5.8 nM	6.7	1.8 nM	12 nM
Cc1c(O)cccc1C(=O)N[C@@H](Cc1ccccc1)[C@@H](O)C(=O)N(Cc1ccccc1)NC(=O)c1cccc(O)c1C	0.16 nM	57	1.6 nM	91 nM
CSC[C@H](NC(=O)OCc1cccc2cnccc12)C(=O)N[C@@H](Cc1ccccc1)[C@H](O)C(=O)N(Cc1ccccc1)NC(=O)COc1c(C)cccc1C	0.25 nM	> 53	1.9 nM	> 100 nM
Cc1cccc(C)c1OCC(=O)N[C@@H](Cc1ccccc1)[C@H](O)C(=O)N(Cc1ccccc1)NC(=O)c1cccc(O)c1C	3 nM	11	1.1 nM	12 nM
